One experiment deals with uPAR wt (Homo sapiens, UniProt Q03405). As to the kind of experiment: SPR inhibition of uPAR binding to immobilized uPA. The protocol: (§1) Covalent immobilization of purified human prouPA^S356A—was accomplished by injecting 12.5 μg/ml protein dissolved in 10 mM sodium acetate (pH 5.0) over a CM5 chip that had been pre-activated with NHS/EDC (N-ethyl-N′-[3-[…])propyl]-carbodiimide), aiming at a surface density of >5000 resonance units (RU) corresponding to 100 fmols/mm^2. After coupling the sensorchip was deactivated with 1 M ethanolamine. Binding of purified human uPAR as analyte was measured from 4 nM to 0.25 nM at 20° C. using 10 mM HEPES, 150 mM NaCl, 3 mM EDTA (pH 7.4) containing 0.05% (v/v) surfactant P20 as running buffer at a flow rate of 50 μl/min. In between cycles the sensorchip was regenerated by two consecutive 10-μl injections of 0.1 M acetic acid/HCl (pH 2.5) in 0.5 M NaCl. The inhibition of 3-fold dilutions of the compounds in question was measured for 4 nM uPAR with identical running conditions. All experiments were performed on a BiacoreT200 instrument.
(§2) For each inhibition peptide inhibition profile of uPAR binding to immobilized uPA there has been run a preceding standard curve and all calculations are based on the that standard curve.
(§3) Surface plasmon resonance (SPR) was applied to determine the […]-value of IRDye800-AE344 on the uPAR⋅uPA interaction in solution using a Biacore 3000 instrument essentially as described. In brief; pro-uPA^S356A, which is the natural ligand for uPAR. […] The analysis was carried out by measuring vobs of a fixed uPAR concentration (2 nM) incubated with a 3-fold dilution series of IRDye800-AE344 (ranging from 0.076 nM to 1.5 μM) for 300 sec at 20° C. with a flow rate of 50 μL/min. A standard curve was measured in parallel (2-fold dilution of uPAR covering 0.06 nM to 2 nM) including one repeated concentration point at the end to validate the biological integrity of the sensor chip. Running buffer contained 10 mM HEPES, 150 mM NaCl, 3 mM EDTA and 0.05% (v/v) surfactant P20, pH 7.4. The sensor chip was regenerated with two injections of 0.1 M acetic acid, 0.5 M NaCl. The parent nonamer peptide antagonist AE105 (Asp-Cha-Phe-D-Ser-D-Arg-Tyr-Leu-Trp-Ser-OH) was analyzed in parallel as positive control and the closed uPAR^H47C-N259C was used as negative control as its uPA binding cavity cannot accommodate AE105.

A further experiment concerns the target uPAR H47C-N259C (Homo sapiens, UniProt Q03405, H69C/N281C). As to the kind of experiment: SPR inhibition of uPAR binding to immobilized uPA, constrained uPAR variant (negative control). The protocol:
as §1, §2
as §3, with “Running buffer contained 10 mM HEPES, 150 mM NaCl, 3 mM EDTA and 0.05% (v/v) surfactant P20, pH 7.4. The sensor chip was regenerated with two injections of 0.1 M acetic acid, 0.5 M NaCl.” left out

Experiment [1] relates to orthotopic GBM (U-87 MG-luc2 cells). The experiment can be described thus: in vivo binding specificity in orthotopic GBM (blocking with AE120, scrambled probe). Also noted: species or system mice. As to conditions: 3 nmol, 1 h. The protocol:
The target specificity to uPAR was evaluated by two different methods: competitive blocking with the uPAR targeting peptide AE120 ((DChaFsrYLWSG)2-βAK) and IRDye800 conjugated to a scrambled peptide, AE354 (IRDye800CW-Glu-Glu-NH—CH2—CH2—O—CH2—CH2—O—CH2—CO—NH—CH2—CH2—O—CH2—CH2—O—CH2—CO-Asp-Cha-Glu-(D)Ser-(D)Arg-Tyr-Leu-Glu-Ser-OH) with similar peptide length as the active peptide. The competitive blocking dose of 1.4-2.8 mg AE120 was injected intraperitoneally 15-30 min prior to intravenous injection of 3 nmol IRDye800CW-AE344 and imaged at 1 h (n=5). The scrambled peptide was administered at 3 nmol and the animals were imaged after 1 h (n=4).
Images were analyzed and processed in ImageJ 1.52a, NIH, USA. Signal measurements were performed on the raw images generated by the Fluoptics system. Tumor signal was measured as a mean fluorescence intensity of the whole tumor and background signal was measured as the mean of a representative area with no tumor on the contralateral hemisphere. Presented pictures are contrast enhanced in ImageJ with the Contrast Enhancement (Saturated pixels: 0.3%).

Square brackets hold non-standard residues; d marks the D form. Peptide text beside a SMILES is read from it. * marks the point of attachment. IRDye800CW = CC1(C)C(/C=C/C2=C(Oc3ccc(S(=O)(=O)O)cc3)C(=C/C=C3/N(CCCCS(=O)(=O)O)c4ccc(S(=O)(=O)O)cc4C3(C)C)/CCC2)=[N+](CCCCCC(=O)*)c2ccc(S(=O)(=O)[O-])cc21; Cha = N[C@@H](CC1CCCCC1)C(=O)O; AEEA = NCCOCCOCC(=O)O

Data on one compound can be found in patent US20210138090A1, “uPAR targeting peptide for use in peroperative optical imaging of invasive cancer” (FLUOGUIDE A/S, priority 2014, published 2021).

uPAR wt, sequence (Q03405 23-305 limits assumed): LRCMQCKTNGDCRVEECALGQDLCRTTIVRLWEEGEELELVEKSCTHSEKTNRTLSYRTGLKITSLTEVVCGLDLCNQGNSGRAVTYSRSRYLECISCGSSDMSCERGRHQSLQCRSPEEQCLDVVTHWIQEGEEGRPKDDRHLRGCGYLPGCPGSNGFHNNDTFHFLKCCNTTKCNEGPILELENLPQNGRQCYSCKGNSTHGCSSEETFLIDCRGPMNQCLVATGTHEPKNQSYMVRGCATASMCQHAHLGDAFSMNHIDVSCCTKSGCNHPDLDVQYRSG
uPAR H47C-N259C, sequence (Q03405 23-305 H69C/N281C limits assumed): as the sequence (Q03405 23-305 limits assumed) above, with H47C, N259C counted along it

As usually defined, the IC50 is the concentration needed to halve the response being measured. High values mean lower potency, low ones higher potency. On to `CC(C)C[C@H](NC(=O)[C@H](Cc1ccc(O)cc1)NC(=O)[C@@H](CCCNC(=N)N)NC(=O)[C@@H](CO)NC(=O)[C@H](Cc1ccccc1)NC(=O)[C@H](CC1CCCCC1)NC(=O)[C@H](CC(=O)O)NC(=O)COCCOCCNC(=O)COCCOCCNC(=O)[C@H](CCC(=O)O)NC(=O)[C@H](CCC(=O)O)NC(=O)CCCCC[N+]1=C(/C=C/C2=C(Oc3ccc(S(=O)(=O)O)cc3)C(=C/C=C3/N(CCCCS(=O)(=O)O)c4ccc(S(=O)(=O)O)cc4C3(C)C)/CCC2)C(C)(C)c2cc(S(=O)(=O)[O-])ccc21)C(=O)N[C@@H](Cc1c[nH]c2ccccc12)C(=O)N[C@@H](CO)C(=O)O` [IRDye800CW-AE344, IRDye800-Glu-Glu-O2Oc-O2Oc-Asp-Cha-Phe-D-ser-D-arg-Tyr-Leu-Trp-Ser-OH] (IRDye800CW-EE[AEEA][AEEA]D[Cha]F[dS][dR]YLWS-OH), for which the IC50 came to 20 ± 1.1 nM on uPAR wt and 5800 ± 20 nM on uPAR H47C-N259C. For the same compound, the figures for the TBR in experiment [1] (blocked with AE120) and in experiment [1] (no blocking) were 4.6 and 6.6, respectively. The “normalized TBR (ref: active probe)” value in experiment [1] (competitively blocked with AE120) was 0.70; in experiment [1] (no blocking), 1.00.
